Results from US8680065B2, “Oligonucleotides of human endogenous retrovirus 9 (ERV-9) long terminal repeat (LTR) and methods of use” (The United States of America, as represented by the …, priority 2008, dated 2014).

Tests used:
[1] = system: K562 cells (a myelogenous leukemia cell line); assay: Cancer cell proliferation, oligonucleotide in LIPOFECTAMINE, 48 hours, direct cell counting; type: cell-based, human; settings: P<0.05
Description: (§1) FIG. 3 is a graph showing the effect of sense and antisense ERV-9 U3 oligonucleotides (SEQ ID NOs: 1 and 2, respectively) on proliferation of K562 cells (a myelogenous leukemia cell line). Cells (4×10^4) were treated with ERV-9 U3 sense or antisense oligonucleotide formulated in LIPOFECTAMINE™ at the concentrations shown for 48 hours.
(§2) To test the effect of the sense and antisense ERV-9 U3 oligonucleotides on proliferation of cancer cells, six different cancer cell lines were selected for transfection studies: HT1080, fibrosarcoma cells (FIG. 1); MDA-231, breast cancer cells (FIG. 2); K562, myelogenous leukemia cells (FIG. 3); LNcaP, prostate cancer cells (FIG. 4); HepG2, hepatocellular carcinoma cells (FIG. 5); and MCF-7, breast cancer cells (FIG. 6). Cells (4×10^4) were treated with ERV-9 U3 sense or antisense oligonucleotide formulated in LIPOFECTAMINE™ at an oligonucleotide concentration of 10, 20 or 30 μg/ml for 48 hours. Green fluorescent protein (GFP) sense oligonucleotide ([…]; SEQ ID NO: 3) was used as a control to measure the non-specific cytotoxicity of phosphorothioate-based oligonucleotides. Antisense oligonucleotides specific for Bcl-2 (G3139; TCTCCCAGCGTGCGCCAT; SEQ ID NO: 4), telomerase (GRN163; TAGGGTTAGACAA; SEQ ID NO: 5), and MDM2 ([…]; SEQ ID NO: 6) were also evaluated. […] After 48 hours of oligonucleotide treatment, cell proliferation was assessed by direct cell counting. Cell proliferation levels were expressed relative to cells transfected with 10 μg/ml GFP control oligonucleotide.

[2] = system: MCF-7 cells (a breast cancer cell line); assay: as above; type: cell-based, human; settings: P<0.05; for cell proliferation compared with G3139, GRN163 and MDM2 antisense oligonucleotides: oligonucleotide 30 μg/ml; for cell proliferation relative to GFP oligonucleotide: oligonucleotide 10, 20 or 30 μg/ml
Description: as §1, with “FIG. 6” for “FIG. 3”, “of MCF-7” for “of K562”, “(a breast cancer” for “(a myelogenous leukemia”
as §2

[3] = system: human primary cells (keratinocytes, lymphocytes, monocytes); assay: Proliferation of normal human primary cells, Example 3, summary; type: cell-based; settings: 20 μg/ml, 48 hours
Description: (§3) To determine whether the inhibitory effect of ERV-9 U3 oligonucleotides is specific to cancer cells, human primary keratinocytes (FIG. 13), lymphocytes (FIG. 14), or monocytes (FIG. 15) were treated with ERV-9 U3 sense or antisense oligonucleotide and cell proliferation was evaluated. Cells (4×10^4) were transfected with ERV-9 U3 sense or antisense oligonucleotide (SEQ ID NOs: 1 and 2, respectively) formulated in LIPOFECTAMINE™ at a concentration of 20 μg/ml. GFP oligonucleotide was used as non-specific phosphorothioate oligonucleotide control. After 48 hours, cell proliferation was assessed by direct cell counting. Cell proliferation levels were expressed relative to GFP control.

[4] = system: human primary lymphocytes; assay: Proliferation of normal human primary cells, 48 hours; type: cell-based; settings: 20 μg/ml, P>0.05
Description: (§4) FIG. 14 is a graph showing the effect of ERV-9 U3 sense and antisense oligonucleotides (SEQ ID NOs: 1 and 2, respectively) on human primary lymphocytes. Cells (4×10^4) were transfected with ERV-9 U3 sense or antisense oligonucleotide formulated in LIPOFECTAMINE™ at a concentration of 20 μg/ml for 48 hours.
as §3

[5] = system: human primary keratinocytes; assay: as above; type: cell-based; settings: 20 μg/ml, P>0.05
Description: as §4, with “13” for “14”, “keratinocytes.” for “lymphocytes.”, “hours. GFP oligonucleotide was used as non-specific phosphorothioate oligonucleotide control.” for “hours.”
as §3

HT1080 cells = assay: Cancer cell proliferation, oligonucleotide in combination with VP16, 48 hours; type: cell-based, human; settings: oligonucleotide 15 μg/ml with VP16 30 ng/ml and 50 ng/ml, P<0.05
Description: FIG. 7 is a graph showing proliferation of HT1080 cells treated with ERV-9 U3 sense or antisense oligonucleotide (SEQ ID NOs: 1 and 2, respectively), in combination with VP16 (also known as etoposide). Cells (4×10^4) were treated with oligonucleotide (15 μg/ml) alone or in combination with the concentrations of VP16 shown for 48 hours. Cell proliferation levels were expressed relative to the percentage of GFP oligonucleotide control in the absence of VP16.
To test the effect of treating cancer cells with the combination of ERV-9 U3 oligonucleotide and VP16, six different cancer cell lines were analyzed: HT1080, (FIG. 7); MDA-231 (FIG. 8); K562 (FIG. 9); LNcaP (FIG. 10); HepG2 (FIG. 11); and MCF-7 (FIG. 12). Cells (4×10^4) were treated with 15 μg/ml ERV-9 U3 sense (SEQ ID NO: 1) or antisense (SEQ ID NO: 2) oligonucleotide alone or in combination with VP16 at a concentration of 30 ng/ml or 50 ng/ml. After 48 hours, cell proliferation was assessed by direct cell counting. Cell proliferation levels were expressed relative to GFP oligonucleotide control in the absence of VP16.

[6] = oligonucleotide 10 μg/ml and 20 μg/ml

| Substance | cell proliferation relative to GFP oligonucleotide [1, 6] | cell proliferation relative to GFP oligonucleotide ([1]; oligonucleotide 30 μg/ml) | cell proliferation compared with G3139, GRN163 and MDM2 antisense oligonucleotides [2] | cell proliferation relative to GFP oligonucleotide [2] | cell proliferation of human primary cells relative to control GFP oligonucleotide [3] | cell proliferation of human primary cells relative to control GFP oligonucleotide ([3]; listed as ERV-9 U3 sense oligonucleotide) | cell proliferation relative to control GFP oligonucleotide [4] | cell proliferation relative to control GFP oligonucleotide [5] | cell proliferation relative to GFP oligonucleotide control (HT1080 cells) | cell proliferation of human primary cells relative to control GFP oligonucleotide ([3]; listed as ERV-9 U3 antisense oligonucleotide) |
| --- | --- | --- | --- | --- | --- | --- | --- | --- | --- | --- |
| U3S: ERV-9 LTR U3 sense oligonucleotide CTCAAGGTTTGTAAACACACCAATCAG, phosphorothioate internucleoside linkages at each position (all phosphorothioate, sugars by position and methylation of C not given here) [Oligo U3S] | inhibited cell proliferation better than GFP control oligonucleotide | inhibited proliferation better than GFP control and G3139, GRN163 and MDM2 antisense oligonucleotides | inhibited proliferation better than G3139, GRN163 and MDM2 antisense oligonucleotides | inhibited cell proliferation better than GFP control oligonucleotide at all three concentrations | neither U3 sense nor antisense oligonucleotides had an effect on the proliferation of human primary cells | did not significantly alter cell proliferation of human primary cells, relative to control GFP oligonucleotide | did not inhibit cell proliferation relative to control GFP oligonucleotide | did not inhibit cell proliferation relative to control GFP oligonucleotide | inhibited cell proliferation better than GFP control and G3139, GRN163 and MDM2 antisense oligonucleotides | – |
| U3AS: ERV-9 LTR U3 antisense oligonucleotide CTGATTGGTGTGTTTACAAACCTTGAG, phosphorothioate internucleoside linkages at each position (all phosphorothioate, sugars by position and methylation of C not given here) [Oligo U3AS] | inhibited cell proliferation better than GFP control oligonucleotide | inhibited proliferation better than GFP control and G3139, GRN163 and MDM2 antisense oligonucleotides | inhibited proliferation better than G3139, GRN163 and MDM2 antisense oligonucleotides | inhibited cell proliferation better than GFP control oligonucleotide at all three concentrations | neither U3 sense nor antisense oligonucleotides had an effect on the proliferation of human primary cells | – | did not inhibit cell proliferation relative to control GFP oligonucleotide | did not inhibit cell proliferation relative to control GFP oligonucleotide | inhibited cell proliferation better than GFP control and G3139, GRN163 and MDM2 antisense oligonucleotides | did not significantly alter cell proliferation of human primary cells, relative to control GFP oligonucleotide |
